What was measured:
[1] = tested on: epilepsy associated with KCNT1 mutation (EIMFS); test: Expanded access case study of highly purified CBD in a child with KCNT1 mutation associated EIMFS; format: in vivo, human
Procedure: The child was […] when they were enrolled in an expanded access compassionate use program for CBD. The patient was diagnosed with Epilepsy of Infancy with Migrating Focal Seizures (EIMFS).
This subject was treated with a highly purified extract of cannabidiol (CBD) obtained from a cannabis plant. Seizure frequency and severity was documented in seizure diaries at baseline (4-week pre-treatment period) and over the treatment period. At each visit quality of life changes, including mood, behaviour, and cognitive function were recorded in addition to global impression of change using a numerical scale.
The patient first presented with seizures on the first day of life. They experienced on average 14 seizures per day. The types of seizure that occurred were motor arrest; asymmetric tonic; clonic extremity movements, irregular breathing and cyanosis.
The patient had tried and failed seven different anti-epileptic drugs and at the time of treatment and continued on the ketogenic diet however their seizures remained refractory.
Pharmaceutical-grade plant-derived CBD oral solution was gradually titrated by 2 to 5 mg/kg increments up to a maximum dose of 25 mg/kg/day.
Laboratory testing for hematologic, liver, kidney function and concomitant AED levels was performed at baseline, and after every 4 weeks of CBD therapy.
The patient was treated for over three years and remains on treatment currently.

[2] = Solubility of drug substance in water; format: physicochemical
From the text: Sesame oil was selected as an excipient to solubilize the drug substance.

[3] = tested on: secondary generalized epilepsy; details: eight adult patients; cited from earlier work
[4] = tested on: seizures; details: 200 mg/day, four adult patients; cited from earlier work
[5] = tested on: seizures; details: 200 mg/day, twelve institutionalized adult patients, open label; cited from earlier work
[6] = tested on: seizures; details: mice, after pro-convulsant drugs or an electric current; cited from earlier work
[7] = tested on: seizures; details: rabbit, in vivo; cited from earlier work
[8] = one patient, oral CBD up to 25 mg/kg/day

| Compound | demeanour and developmental milestones (caregiver documented) ([1]; after 6 months of treatment) | reduction in overall seizure frequency ([1]; after 16 weeks of treatment, 25 mg/kg/day, one patient) | side effects at maximum dose ([1]; after 16 weeks, 25 mg/kg/day) | side effect on titration ([1]; initial 12 week period, CBD titrated too quickly) | overall seizure frequency increase compared to baseline ([1]; initial 12 weeks of treatment, maximum dose of 25 mg/kg/day not reached, one patient) | seizure severity ([1]; one patient) | reduction in Type C seizures (irregular breathing, cyanosis and clonic extremity movements) [1, 8] | reduction in Type D seizures (most severe, asymmetric tonic seizures) [1, 8] | solubility in water [2] | number of patients with marked reduction of seizures [3] | seizure freedom [4] | control of seizures [5] | prevention of seizures [6] | effect on convulsions [7] |
| --- | --- | --- | --- | --- | --- | --- | --- | --- | --- | --- | --- | --- | --- | --- |
| C=C(C)[C@@H]1CCC(C)=C[C@H]1c1c(O)cc(CCCCC)cc1O [CBD, Cannabidiol] | more interactive and had attained new milestones including babbling, smiling, and fixing | 12% | without side effects | somnolence | 13% | clinically meaningful reduction in seizure severity | 93% | 48% | insoluble in water | 4 | two of the four patients became seizure free | ineffective | able to prevent seizures | – |
| CCCCCc1cc(O)c2c(c1)OC(C)(C)[C@@H]1CCC(C)=C[C@@H]21 [THC, Tetrahydrocannabinol] | – | – | – | – | – | – | – | – | – | – | – | – | – | pro-convulsant |

Source: patent publication US20220023232A1, “USE OF CANNABINOIDS IN THE TREATMENT OF EPILEPSY” (GW Research Limited, priority 2019, published 2022)
